Target: IGF-1R (Homo sapiens (Human), UniProt P08069)
Test: Example B-1: IGF-1R Assay (PC3 cells, IGF1 stimulation, AlphaLISA)
Assay type: cell-based
Conditions: 200 ng/mL IGF1 stimulation, read-out: Biological Activity against IGF-1R IC50
Procedure: 50K PC3 cells were seeded on day 1 in 50 μL of media in 96-well plate and incubated overnight at 37° C., 5% CO2. On day 2, all cells were expected to be at 80-90% confluency. Cells were starved for two hours by changing the media to 90 μL of EMEM serum-free media and incubated for 2 hours. Next, cells were treated with 10 μL of 10× concentrated and 3× serially diluted compounds for two hours. It makes 1× of compounds in 100 μL media. This was followed by stimulation of cells with 11×IGF1 for 30 min in 10 μL of serum-free EMEM media at the final concentration of 200 ng/mL.
The media was removed and replaced by 50 μL of 1× lysis buffer from the AlphaLISA kit (with 1× of cOmplete™ protease inhibitor). The plates were sealed, and cells were allowed to lyse for 10 min in the shaker before storing the plate at −20° C. until used. The AlphaLISA assay with processed cell lysates were performed as described in the protocol. Briefly, 10 μL of the undiluted sample were loaded to 384 well Optiplates and 5 μL of the acceptor mix (as described in the AlphaLISA kit) was added to each well. The plates were sealed and briefly vortexed followed by the incubation at RT for 3 hours. In the dark, 5 μL of donor mix was added to each well. All plates were sealed and stored at RT overnight. The plates were read in EnVision reader using standard AlphaLISA settings.
Compound activity was analyzed using CBIS data analysis suite (ChemInnovation, CA). Percentage inhibition was calculated using the following formula: % Inhibition=100%×(1−(mean RLU of test sample−mean RLU of vehicle control)/(mean RLU of EC80 control−mean RLU of vehicle control)). The activity for representative examples of the invention is shown in the following table, wherein A: IC50≤500 nM; B: 500 nM<IC50≤2 μM; C: 2 μM<IC50≤10 μM; D: IC50>10 μM.

IGF-1R, sequence (P08069 31-1367): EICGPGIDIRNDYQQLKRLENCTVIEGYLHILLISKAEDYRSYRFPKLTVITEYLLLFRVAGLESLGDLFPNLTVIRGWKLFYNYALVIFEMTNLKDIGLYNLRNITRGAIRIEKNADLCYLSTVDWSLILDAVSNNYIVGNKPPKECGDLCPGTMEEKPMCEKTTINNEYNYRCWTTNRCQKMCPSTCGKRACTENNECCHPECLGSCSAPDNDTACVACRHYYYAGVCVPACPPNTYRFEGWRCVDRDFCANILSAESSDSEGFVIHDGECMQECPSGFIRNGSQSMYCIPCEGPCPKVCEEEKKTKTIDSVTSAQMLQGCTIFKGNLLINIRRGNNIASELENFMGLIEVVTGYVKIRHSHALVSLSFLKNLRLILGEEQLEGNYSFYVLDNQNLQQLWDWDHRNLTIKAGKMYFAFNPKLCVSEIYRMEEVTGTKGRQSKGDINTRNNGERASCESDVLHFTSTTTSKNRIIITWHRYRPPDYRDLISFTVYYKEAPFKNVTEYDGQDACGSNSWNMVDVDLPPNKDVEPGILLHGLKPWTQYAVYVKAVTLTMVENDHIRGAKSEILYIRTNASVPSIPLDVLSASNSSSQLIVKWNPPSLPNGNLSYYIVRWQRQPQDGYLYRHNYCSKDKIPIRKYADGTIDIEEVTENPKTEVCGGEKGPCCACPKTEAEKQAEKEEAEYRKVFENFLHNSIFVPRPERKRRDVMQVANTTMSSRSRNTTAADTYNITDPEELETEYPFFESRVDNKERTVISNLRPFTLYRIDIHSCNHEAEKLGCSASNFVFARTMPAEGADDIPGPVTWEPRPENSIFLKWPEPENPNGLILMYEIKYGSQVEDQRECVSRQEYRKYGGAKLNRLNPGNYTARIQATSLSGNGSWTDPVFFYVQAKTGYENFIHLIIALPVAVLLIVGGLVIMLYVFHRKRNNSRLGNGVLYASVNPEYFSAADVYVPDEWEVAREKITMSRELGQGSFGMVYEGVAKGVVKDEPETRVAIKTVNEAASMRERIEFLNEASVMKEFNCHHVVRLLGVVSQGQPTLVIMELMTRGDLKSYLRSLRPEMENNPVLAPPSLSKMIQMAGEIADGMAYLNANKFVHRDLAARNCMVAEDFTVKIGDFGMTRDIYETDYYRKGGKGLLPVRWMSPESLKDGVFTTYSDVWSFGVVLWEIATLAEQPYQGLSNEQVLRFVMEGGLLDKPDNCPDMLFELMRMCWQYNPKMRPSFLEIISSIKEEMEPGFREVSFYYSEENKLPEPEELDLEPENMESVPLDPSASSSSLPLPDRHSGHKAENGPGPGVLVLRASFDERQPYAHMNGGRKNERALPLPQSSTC

Compound | IC50
COc1cc(Nc2nccc(Nc3cnc4cc(F)c(F)cc4c3)n2)cnc1N1CC2(COC2)C1 [Compound 50, 4-(6,7-difluoro-3-quinolylamino)-2-{5-methoxy-6-(2-oxa-6-aza-6-spiro[3.3]heptyl)-3-pyridylamino}pyrimidine] | ≤ 0.5 µM
C[C@@H]1COc2ncc(Nc3ccnc(Nc4ccc(OCCCN5CCOCC5)cc4)n3)cc2O1 [Compound 105, 4-[(R)-2-methyl-2,3-dihydro-1,4-dioxa-5-aza-7-naphthylamino]-2-[p-(3-morpholinopropoxy)phenylamino]pyrimidine] | ≤ 0.5 µM
COc1cc(Nc2nccc(Nc3cnc4cc(N)ccc4c3)n2)ccc1O[C@H]1C[C@@H](N(C)C)C1 [Compound 12, 4-(7-amino-3-quinolylamino)-2-{3-methoxy-4-[(1s,3s)-3-(dimethylamino)cyclobutoxy]phenylamino}pyrimidine] | ≤ 0.5 µM
COc1cc(Nc2nccc(Nc3cnc4ncc(F)cc4c3)n2)ccc1O[C@H]1C[C@@H](N(C)C)C1 [Compound 86, 4-(6-fluoro-1,8-diaza-3-naphthylamino)-2-{3-methoxy-4-[(1s,3s)-3-(dimethylamino)cyclobutoxy]phenylamino}pyrimidine] | ≤ 0.5 µM
COc1cc(Nc2nccc(Nc3cnc4c(c3)CC(C)(C)CC4)n2)ccc1O[C@H]1C[C@H](N(C)C)C1 [Compound 339, 4-(6,6-dimethyl-5,6,7,8-tetrahydro-3-quinolylamino)-2-{3-methoxy-4-[(1r,3r)-3-(dimethylamino)cyclobutoxy]phenylamino}pyrimidine] | ≤ 0.5 µM
Clc1ccc2ncc(Nc3ccnc(Nc4ccc(OCCCN5CCOCC5)cc4)n3)cc2c1 [Compound 401, 4-(6-chloro-3-quinolylamino)-2-[p-(3-morpholinopropoxy)phenylamino]pyrimidine] | ≤ 0.5 µM
COc1cc(OCCCN2CCCCC2)ccc1Nc1nccc(Nc2cnc3ccccc3c2)n1 [Compound 20, 2-[2-methoxy-4-(3-piperidinopropoxy)phenylamino]-4-(3-quinolylamino)pyrimidine] | ≤ 0.5 µM
COc1cc(Nc2ncc(F)c(Nc3cc4cccc(F)c4[nH]c3=O)n2)ccc1O[C@H]1C[C@@H](N(C)C)C1 [Compound 242, 8-fluoro-3-(5-fluoro-2-{3-methoxy-4-[(1s,3s)-3-(dimethylamino)cyclobutoxy]phenyl-amino}-4-pyrimidinylamino)-1,2-dihydro-2-quinolinone] | 2 to 10 µM
O=S1(=O)CCN(CCCOc2ccc(Nc3nccc(Nc4cnc5ccc(Br)cc5c4)n3)cc2)CC1 [Compound 206, 4-(3-{p-[4-(6-bromo-3-quinolylamino)-2-pyrimidinylamino]phenoxy}propyl)-1λ^6,4-thiazinane-1,1-dione] | ≤ 0.5 µM
COc1cc(Nc2nccc(Nc3cnc4cc(F)c(F)cc4c3)n2)cnc1OC1CCNCC1 [Compound 89, N4-(6,7-difluoroquinolin-3-yl)-N2-(5-methoxy-6-(piperidin-4-yloxy)pyridin-3-yl)pyrimidine-2,4-diamine] | 0.5 to 2 µM
Brc1ccc2cc(Nc3ccnc(Nc4ccc(OCCCN5CCOCC5)cc4)n3)cnc2c1 [Compound 409, 4-(7-bromo-3-quinolylamino)-2-[p-(3-morpholinopropoxy)phenylamino]pyrimidine] | 2 to 10 µM
COc1cc(Nc2nccc(Nc3cnc4ccc(Cl)cc4c3)n2)cnc1N1CCN(C2COC2)CC1 [Compound 481, 4-(6-chloro-3-quinolylamino)-2-{5-methoxy-6-[4-(3-oxetanyl)-1-piperazinyl]-3-pyridylamino}pyrimidine] | ≤ 0.5 µM
7-(2-{3-methoxy-4-[(1s,3s)-3- (dimethylamino)cyclobutoxy] phenylamino}-4- pyrimidinylamino)-2,2- dimethyl-2,4-dihydro-1-oxa- 4,5-diaza-3-naphthalenone [Compound 288] | 0.5 to 2 µM
COc1cc(Nc2nccc(Nc3cnc4c(c3)SCCC4)n2)ccc1OCCCN1CCCCC1 [Compound 378, 4-(3,4-dihydro-2H-1-thia-5-azanaphth-7-ylamino)-2-[3-methoxy-4-(3-piperidinopropoxy)phenylamino]pyrimidine] | ≤ 0.5 µM

— patent US20250171431A1, “HETEROCYCLIC INHIBITORS OF IGF-1R FOR TREATMENT OF DISEASE” (HORIZON THERAPEUTICS IRELAND DAC, priority 2023, published 2025)
